Results: patent US20260184712A1, “Heterocyclic Compounds as ENT Inhibitors and Compounds for Use in the Treatment of Cancers” (iTeos Belgium SA, priority 2022, published 2026)

Tests used:
human ENT1 = target: T1, human ENT1 (Homo sapiens, UniProt Q99808); experiment: Uridine transport inhibition assay, ENT1-mediated uptake in MDCKII cells; format: cell-based; conditions: MDCKIIENT1-LV cells, probe uridine 1 μM, pre-incubation 30 min, incubation 1 min
T1 construct: JAR cells expressing ENT1 were purchased from ATCC; host or cells: JAR cells
T1 sequence (Q99808 1-456): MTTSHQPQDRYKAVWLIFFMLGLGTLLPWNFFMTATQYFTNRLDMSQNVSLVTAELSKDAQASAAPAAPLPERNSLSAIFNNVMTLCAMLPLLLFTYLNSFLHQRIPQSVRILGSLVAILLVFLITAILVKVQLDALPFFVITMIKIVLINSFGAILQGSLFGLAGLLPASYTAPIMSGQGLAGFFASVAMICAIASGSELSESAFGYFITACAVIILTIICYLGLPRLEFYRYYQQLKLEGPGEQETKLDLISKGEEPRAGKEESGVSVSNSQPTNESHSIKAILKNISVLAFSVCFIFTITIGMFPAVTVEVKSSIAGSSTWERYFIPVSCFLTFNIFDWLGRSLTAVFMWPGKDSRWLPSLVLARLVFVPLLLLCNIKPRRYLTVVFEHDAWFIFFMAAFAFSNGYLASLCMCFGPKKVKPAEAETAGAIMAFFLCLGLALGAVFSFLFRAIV
Procedure: The goal of this study was to determine the potency and selectivity of ENT1 inhibitors by measuring ENT1 and ENT2-mediated transport using an in vitro cellular uptake assay.
Human ENT1 and ENT2 transporters were stably expressed in Madin-Darby Canine Kidney II (MDCKII) cells via transduction. Cell lines overexpressing the relevant ENT1 or ENT2 molecules were preincubated with a dose range of the relevant compound for 30 minutes before introduction of the specific substrate at the concentration indicated in the Table assay parameters below. The transporter assay was conducted for the time specified in the Table assay parameters before the specific uptake of the substrate into the cells was quantified. Specific uptake was determined by comparing the uptake from the cells treated with the relevant compounds and the uptake by cells not overexpressing the transporter in question.
Specific uptake for each concentration of the test sample was normalized to the DMSO control value to generate a relative accumulation value (or relative transporter activity). Data were plotted against the log molar concentration of the test reagent used. IC50 values were generated with Prism version 9.4.1 and the following function: log(inhibitor) vs. response—Variable slope (four parameters).

[1] = system: stimulated primary human T cells; experiment: T cell proliferation assay, Condition A (X-VIVO15); format: cell-based; conditions: Homo sapiens, T-cell, 96 h; Condition A: X-VIVO15 medium; anti-CD3/anti-CD28 beads, ATP, 4 days; CFSE-lo T cells
How it was run: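 CFSE-labelled human CD3+ T cells (2×10^4/well) in serum-free X-VIVO15 were activated with anti-CD3/CD28 beads (1 bead:2 cells), pre-incubated 30 min with inhibitor, then cultured with 100 uM ATP for 4 days at 37 °C. Flow cytometry measured %CFSE^lo cells, and IC50/IC90 came from log-concentration curve fits.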

Row | IC50 (human ENT1) [nM] | Compound | IC50 [1] [nM]
1 | 0.1 to 2 | C[C@H]1O[C@@H](n2c(NC3CCCC3)nc3c(OCc4ccc([N+](=O)[O-])cc4)ncnc32)[C@H](O)[C@@H]1O [Compound 6] | < 1
2 | 0.1 to 2 | C[C@H]1O[C@@H](n2c(NC3CCC(O)CC3)nc3c(OCc4ccc([N+](=O)[O-])cc4)ncnc32)[C@H](O)[C@@H]1O (some centres unmarked) [Compound 28] | < 1
3 | 0.1 to 2 | C[C@H]1O[C@@H](n2c(NC3CCOCC3)nc3c(OCc4ccc(C#N)cc4)ncnc32)[C@H](O)[C@@H]1O [Compound 73] | < 1
4 | 0.1 to 2 | C[C@H]1O[C@@H](n2c(NC3CCOCC3)nc3c(OCc4ccc(OC(F)F)nc4)ncnc32)[C@H](O)[C@@H]1O [Compound 75] | < 1
5 | 0.1 to 2 | C[C@H]1O[C@@H](n2c(N[C@H]3CCC(F)(F)C3)nc3c(OCc4ccc(C#N)cc4)ncnc32)[C@H](O)[C@@H]1O [Compound 82] | < 1
6 | < 0.1 | C[C@H]1O[C@@H](n2cnc3c(SCc4ccc([N+](=O)[O-])cc4)ncnc32)[C@H](O)[C@@H]1O [Compound 147] | 1 to 20
7 | 0.1 to 2 | C[C@H]1O[C@@H](n2cnc3c(N4CCc5ccc([N+](=O)[O-])cc5C4)ncnc32)[C@H](O)[C@@H]1O [Compound 151] | < 1
8 | 0.1 to 2 | C[C@H]1O[C@@H](n2cnc3c(OCc4ccc([N+](=O)[O-])cc4)ncnc32)[C@H](O)[C@@H]1O [Compound 166] | 1 to 20
9 | 0.1 to 2 | C[C@H]1O[C@@H](n2cnc3c(OCc4ccc(OC(F)F)cc4)ncnc32)[C@H](O)[C@@H]1O [Compound 173] | 1 to 20
10 | 0.1 to 2 | OCCOC[C@H]1O[C@@H](n2cnc3c(OCc4ccc(OC(F)(F)F)cc4)ncnc32)[C@H](O)[C@@H]1O [Compound 175] | 1 to 20
